Source: patent US12195427B2, “MASP-2 inhibitors and methods of use” (priority 2018, dated 2025)

Molecular target: MASP-2 CCP2-SP (Homo sapiens (Human), UniProt O00187)
Experiment: MASP-2 co-crystallization, X-ray crystallography and structure analysis (H-bonds, van der Waals contacts);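 for Ligand-pharmacophore element distance, pharmacophore element C2: distance from averaged pharmacophore element to bound ligand; missing value means element absent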;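 for Ligand-pharmacophore element distance, pharmacophore element C3: distance from averaged pharmacophore element to bound ligand; missing value means element absent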;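 for Ligand-pharmacophore element distance, pharmacophore element C4: distance from averaged pharmacophore element to bound ligand; missing value means element absent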;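 for Ligand-pharmacophore element distance, pharmacophore element C5: distance from averaged pharmacophore element to bound ligand; missing value means element absent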
Set-up: van der Waals contact distance, MASP-2 HIS 483 atom CD2 / van der Waals contact distance, MASP-2 HIS 483 atom NE2 / van der Waals contact distance, SER 654 C to compound atom / van der Waals contact distance, SER 654 O to compound atom / van der Waals contact distance, TRP 655 C to compound atom / van der Waals contact distance, MASP-2 GLY 528 atom CA / van der Waals contact distance TRP 655 atom CZ3 / van der Waals contact distance TRP 655 atom N / van der Waals contact distance TRP 655 atom CE3 / van der Waals contact distance GLY 656 atom C / van der Waals contact distance GLY 656 atom CA / van der Waals contact distance GLY 656 atom O / van der Waals contact distance, MASP-2 TYR 607 atom CD1 / van der Waals contact distance, MASP-2 PRO 606 atom O / d(C3,CA1) / d(CA1,N1)2 / d(H4,O1) / d(H4,O2) / d(O1,O2) / d(CA1,O2) / d(CA6,O1) / d(CA6,O2) / d(CA1,C5) / d(O2,H3) / d(N2,C2) / d(CA5,N2) / d(N2,C4) / d(N2,C6) / d(N2,CA3) / d(N2,O3) / d(O4,H2): unit not given beside the values
Settings: Table A4-1; element C2
Description: This example illustrates the preparation of recombinant MASP-2 protein, based on UniProt O00187, human mannan-binding lectin serine protease 2. Expression constructs for human MASP-2 CCP2-SP and CCP2-SP-6HIS were generated for recombinant expression in E. coli cells.
Typically, crystallization hits were obtained by screening against […] 96-well crystallization reagent kits (GRAS6, GRAS2, Hampton Research; MORPHEUS, Molecular Dimensions; Wizard 1&2 Cryo, Rigaku Reagents) and crystal growth was inspected by optical microscopy. Crystals were used directly or further optimized for X-ray diffraction. Crystals were captured with cryogenic loops and dipped into liquid nitrogen directly or cryoprotected with a 20% glycerol in crystallization formulation before flash-cooling in liquid nitrogen.
Thereafter crystals are transferred once or twice for soaking within the crystallization solution containing the MASP-2 inhibitor.
Crystals were diffracted with synchrotron X-rays of […] and X-ray diffraction datasets were collected at beamlines SSRL BL9-2, BL14-1, BL12-2 as well as ALS sector 5 using Dectris Pilatus and Eiger detectors. Structures were determined by molecular replacement using portions of the structure 1Q3X as search models and partially refined with Buster 2.10.2 or Refmac 5.8. […] When multiple ligand poses were observed, for instance arising from multiple molecules in the asymmetric unit or refined dual poses within the same molecule, only one pose was selected and analyzed.
LigPlot+ calls these ‘nonbonded contacts’ or ‘hydrophobic contacts’. Despite the name, there are atom pairings that include possible H-bonds. Thus, in some instances, the Table A2 also contains H-bond interactions.

MASP-2 CCP2-SP, sequence (O00187 445-686): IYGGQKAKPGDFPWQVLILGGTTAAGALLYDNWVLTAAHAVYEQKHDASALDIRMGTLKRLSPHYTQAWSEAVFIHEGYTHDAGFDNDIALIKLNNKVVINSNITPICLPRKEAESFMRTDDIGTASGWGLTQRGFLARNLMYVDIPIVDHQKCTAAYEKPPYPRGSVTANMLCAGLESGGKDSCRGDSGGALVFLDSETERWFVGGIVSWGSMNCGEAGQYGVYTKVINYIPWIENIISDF
MASP-2 CCP2-SP, sequence (O00187 364-432 partner): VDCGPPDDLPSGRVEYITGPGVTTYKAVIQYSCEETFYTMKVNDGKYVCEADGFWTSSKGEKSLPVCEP

SMILES	Ligand-pharmacophore element distance, pharmacophore element C2
C[C@H](NC(=O)[C@H]1C[C@@H](c2ccccc2)CCN1)C(=O)NCc1cc(Cl)ccc1O.Cl [1078_8]	0.85
C[C@H](NC(=O)[C@H]1C[C@@H](c2ccccc2)CCN1)C(=O)NCc1cc(Cl)ccc1O.Cl [1078_9]	0.67

Same assay, conditions: Table A4-1; element C3

SMILES	Ligand-pharmacophore element distance, pharmacophore element C3
C[C@H](NC(=O)[C@H]1C[C@@H](c2ccccc2)CCN1)C(=O)NCc1cc(Cl)ccc1O.Cl [1078_8]	0
C[C@H](NC(=O)[C@H]1C[C@@H](c2ccccc2)CCN1)C(=O)NCc1cc(Cl)ccc1O.Cl [1078_9]	0

Same assay, conditions: Table A4-1; element C4

SMILES	Ligand-pharmacophore element distance, pharmacophore element C4
C[C@H](NC(=O)[C@H]1C[C@@H](c2ccccc2)CCN1)C(=O)NCc1cc(Cl)ccc1O.Cl [1078_8]	0
C[C@H](NC(=O)[C@H]1C[C@@H](c2ccccc2)CCN1)C(=O)NCc1cc(Cl)ccc1O.Cl [1078_9]	0

Same assay, conditions: Table A4-1; element C5

SMILES	Ligand-pharmacophore element distance, pharmacophore element C5
C[C@H](NC(=O)[C@H]1C[C@@H](c2ccccc2)CCN1)C(=O)NCc1cc(Cl)ccc1O.Cl [1078_8]	0.78
C[C@H](NC(=O)[C@H]1C[C@@H](c2ccccc2)CCN1)C(=O)NCc1cc(Cl)ccc1O.Cl [1078_9]	0.46

Same assay, conditions: Table A4-1; element C6

SMILES	Ligand-pharmacophore element distance, pharmacophore element C6
C[C@H](NC(=O)[C@H]1C[C@@H](c2ccccc2)CCN1)C(=O)NCc1cc(Cl)ccc1O.Cl [1078_8]	0
C[C@H](NC(=O)[C@H]1C[C@@H](c2ccccc2)CCN1)C(=O)NCc1cc(Cl)ccc1O.Cl [1078_9]	0

Same assay, conditions: Table A4-1; element C7

SMILES	Ligand-pharmacophore element distance, pharmacophore element C7
C[C@H](NC(=O)[C@H]1C[C@@H](c2ccccc2)CCN1)C(=O)NCc1cc(Cl)ccc1O.Cl [1078_8]	0
C[C@H](NC(=O)[C@H]1C[C@@H](c2ccccc2)CCN1)C(=O)NCc1cc(Cl)ccc1O.Cl [1078_9]	0

Same assay, conditions: Table A4-1; element CA1

SMILES	Ligand-pharmacophore element distance, pharmacophore element CA1
C[C@H](NC(=O)[C@H]1C[C@@H](c2ccccc2)CCN1)C(=O)NCc1cc(Cl)ccc1O.Cl [1078_8]	1.67
C[C@H](NC(=O)[C@H]1C[C@@H](c2ccccc2)CCN1)C(=O)NCc1cc(Cl)ccc1O.Cl [1078_9]	1.62

Same assay, conditions: Table A4-1; element CA2

SMILES	Ligand-pharmacophore element distance, pharmacophore element CA2
C[C@H](NC(=O)[C@H]1C[C@@H](c2ccccc2)CCN1)C(=O)NCc1cc(Cl)ccc1O.Cl [1078_8]	0.92
C[C@H](NC(=O)[C@H]1C[C@@H](c2ccccc2)CCN1)C(=O)NCc1cc(Cl)ccc1O.Cl [1078_9]	0.56

Same assay, conditions: Table A4-1; element CA3

SMILES	Ligand-pharmacophore element distance, pharmacophore element CA3
C[C@H](NC(=O)[C@H]1C[C@@H](c2ccccc2)CCN1)C(=O)NCc1cc(Cl)ccc1O.Cl [1078_8]	0
C[C@H](NC(=O)[C@H]1C[C@@H](c2ccccc2)CCN1)C(=O)NCc1cc(Cl)ccc1O.Cl [1078_9]	0

Same assay, conditions: Table A4-1; element CA4

SMILES	Ligand-pharmacophore element distance, pharmacophore element CA4
C[C@H](NC(=O)[C@H]1C[C@@H](c2ccccc2)CCN1)C(=O)NCc1cc(Cl)ccc1O.Cl [1078_8]	0
C[C@H](NC(=O)[C@H]1C[C@@H](c2ccccc2)CCN1)C(=O)NCc1cc(Cl)ccc1O.Cl [1078_9]	0

Same assay, conditions: Table A4-1; element CA5

SMILES	Ligand-pharmacophore element distance, pharmacophore element CA5
C[C@H](NC(=O)[C@H]1C[C@@H](c2ccccc2)CCN1)C(=O)NCc1cc(Cl)ccc1O.Cl [1078_8]	0
C[C@H](NC(=O)[C@H]1C[C@@H](c2ccccc2)CCN1)C(=O)NCc1cc(Cl)ccc1O.Cl [1078_9]	0

Same assay, conditions: Table A4-1; element CA6

SMILES	Ligand-pharmacophore element distance, pharmacophore element CA6
C[C@H](NC(=O)[C@H]1C[C@@H](c2ccccc2)CCN1)C(=O)NCc1cc(Cl)ccc1O.Cl [1078_8]	0
C[C@H](NC(=O)[C@H]1C[C@@H](c2ccccc2)CCN1)C(=O)NCc1cc(Cl)ccc1O.Cl [1078_9]	0

Same assay, conditions: Table A5-1 pharmacophore: distance between elements, S2/S1 region

SMILES	d(CA1,C5)	d(CA1,O1)	d(CA1,O2)	d(CA1,O4)	d(H4,O1)	d(H4,O2)	d(O1,O2)	d(O4,H2)
C[C@H](NC(=O)[C@H]1C[C@@H](c2ccccc2)CCN1)C(=O)NCc1cc(Cl)ccc1O.Cl [1078_8]	3.10	4.33	4.59	2.75	2.28	2.53	2.73	0.98
C[C@H](NC(=O)[C@H]1C[C@@H](c2ccccc2)CCN1)C(=O)NCc1cc(Cl)ccc1O.Cl [1078_9]	3.11	4.31	4.77	2.74	2.21	2.49	3.11	0.98

Same assay, conditions: Table A5-2 pharmacophore distance, S3/S4 region

SMILES	d(N2,C2)	d(N2,CA2)	d(O2,H3)	d(O2,N2)
C[C@H](NC(=O)[C@H]1C[C@@H](c2ccccc2)CCN1)C(=O)NCc1cc(Cl)ccc1O.Cl [1078_8]	1.44	5.66	2.69	2.85
C[C@H](NC(=O)[C@H]1C[C@@H](c2ccccc2)CCN1)C(=O)NCc1cc(Cl)ccc1O.Cl [1078_9]	1.46	5.71	3.06	2.89

Same assay, conditions: Table A6-1 pharmacophore angle

SMILES	a(C5, CA1, O1)	a(CA1, O1, O2)	a(CA1, O4, H2)	a(O1, CA1, O4)	a(O1, O2, H4)
C[C@H](NC(=O)[C@H]1C[C@@H](c2ccccc2)CCN1)C(=O)NCc1cc(Cl)ccc1O.Cl [1078_8]	159.05	112.99	125.48	73.28	111.09
C[C@H](NC(=O)[C@H]1C[C@@H](c2ccccc2)CCN1)C(=O)NCc1cc(Cl)ccc1O.Cl [1078_9]	161.68	117.85	128.05	66.67	97.24

Same assay, conditions: Table A6-2 pharmacophore angle

SMILES	a(O1, O2, H3)	a(O1, O2, N2)	a(O2, N2, C2)	a(O2, N2, CA2)
C[C@H](NC(=O)[C@H]1C[C@@H](c2ccccc2)CCN1)C(=O)NCc1cc(Cl)ccc1O.Cl [1078_8]	140.66	145.13	125.44	153.81
C[C@H](NC(=O)[C@H]1C[C@@H](c2ccccc2)CCN1)C(=O)NCc1cc(Cl)ccc1O.Cl [1078_9]	142.04	146.14	119.45	153.36

Same assay, conditions: Table A7-1; between pharmacophore elements of the bound compound

SMILES	Pharmacophore torsion angle a(C5, CA1, O1, H4)	Pharmacophore torsion angle a(H4, O1, O2, H3)	Pharmacophore torsion angle a(H4, O1, O2, N2)	Pharmacophore torsion angle a(O1, H4, O2, CA1)	Pharmacophore torsion angle a(O1, O2, N2, C2)
C[C@H](NC(=O)[C@H]1C[C@@H](c2ccccc2)CCN1)C(=O)NCc1cc(Cl)ccc1O.Cl [1078_8]	5.11	−134.33	−122.87	−58.50	135.84
C[C@H](NC(=O)[C@H]1C[C@@H](c2ccccc2)CCN1)C(=O)NCc1cc(Cl)ccc1O.Cl [1078_9]	14.92	−116.62	−110.81	−50.72	144.64

Same assay, conditions: Table A7-2; between pharmacophore elements of the bound compound

SMILES	Pharmacophore torsion angle a(O1, O2, N2, CA2)
C[C@H](NC(=O)[C@H]1C[C@@H](c2ccccc2)CCN1)C(=O)NCc1cc(Cl)ccc1O.Cl [1078_8]	143.43
C[C@H](NC(=O)[C@H]1C[C@@H](c2ccccc2)CCN1)C(=O)NCc1cc(Cl)ccc1O.Cl [1078_9]	146.06
